Laboratory results reported in patent US9079891B2, “Compounds that modulate intracellular calcium” (CALCIMEDICA, INC., priority 2010, dated 2015).
Where two headings read alike, the source gives them in different places.

Legend:
[1] = target: T1, recombinant human STIM1 and Orai1 (Homo sapiens, UniProt Q96D31); assay: Fluorescence-based assay of store-operated calcium entry in Orai1/STIM1 stable cells (FLIPR); type: cell-based; conditions: for IC50: HEK-293 cells stably expressing human Orai1/STIM1, Fluo-4, Peak-Basal signal, read-out: FLIPR_CRAC: 9 point CRC: O1S1_JR251: IC50: Peak_over_Basal; for FLIPR_CRAC: 9 point CRC: O1S1_JR251: efficacy: printed in the IC50 column in place of a class symbol
T1 construct: c-myc (C); expressed in transfected cells; host or cells: HEK-293 cells stably expressing human STIM1 and human Orai1
T1 sequence (Q96D31 whole entry): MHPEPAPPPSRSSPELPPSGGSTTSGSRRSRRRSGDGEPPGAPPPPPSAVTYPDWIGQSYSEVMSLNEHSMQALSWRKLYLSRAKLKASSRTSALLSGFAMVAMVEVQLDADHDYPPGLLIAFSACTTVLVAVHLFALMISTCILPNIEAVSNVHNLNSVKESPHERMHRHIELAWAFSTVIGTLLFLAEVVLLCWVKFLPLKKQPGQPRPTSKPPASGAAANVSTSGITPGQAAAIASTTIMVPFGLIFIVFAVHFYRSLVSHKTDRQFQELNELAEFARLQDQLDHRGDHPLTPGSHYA
Method: A. Fluorescence-Based Assay of Store-Operated Calcium Entry in Orai1/Stim1 Stable Cells.
Cells stably expressing recombinant human STIM1 and Orai1 are generated by transfecting a human Orai1 expression plasmid (pcDNA3.1-Orai1-cmyc) into HEK-293 cells stably overexpressing human STIM1 (Roos et al. 2005 JCB 169(3): 435-445). Colonies of cells stably expressing both STIM1 and Orai1 proteins are selected and then subcloned by limiting dilution. Cells were cultured at 37° C./6% CO2 in complete medium with 10% FBS and appropriate selection markers.
The day prior to performing the assay Orai1/STIM1 stable cells are plated in 50 μL of complete medium at 90-95% confluence in a 384 well plate. Cells are grown at 37° C./6% CO2 overnight. On the day of the assay, 1.5 μM fluo-4-AM (Invitrogen) in complete medium is added to the cells, which are then incubated for 1 hour at RT. Cells are washed once in Ca^2+-free HBSS (Hank's buffered saline solution) and 35 μl of Ca^2+-free HBSS is added to each well. Test compounds are added to wells in a 10 μL Ca^2+-free HBSS solution, prepared at 4.5× the desired final concentration, and incubated for 30 minutes at RT. The initial baseline fluorescence signal is then measured with a FLIPR^384 (Molecular Devices) plate reader. Calcium entry is initiated by adding 5 μl of 10×CaCl2 (10 mM) in HBSS, and changes in cellular fluorescence are measured with the FLIPR^384 plate reader. In each well, the magnitude of the fluorescence signal as a result of calcium entry into the cell is determined by calculating the difference between the peak fluorescence signal measured after calcium addition and the initial baseline fluorescence signal (designated Peak-Basal). IC50 values are typically calculated as the concentration that inhibited 50% of the Peak-Basal signal.

[2] = tested on: RBL-2H3 cells; assay: Fluorescence-based assay of store-operated calcium entry in RBL-2H3 cells (FLIPR, thapsigargin); type: cell-based, rat; conditions: Fluo-4, Upslope 0-7 sec, read-out: FLIPR_CRAC: 9 pt CRC - Fluo4_TG-D: RBL-2H3: IC50: Upslope 0-7 sec
Method: B. Fluorescence-Based Assay of Store-Operated Calcium Entry in RBL-2H3 Cells.
RBL-2H3 cells are obtained from ATCC and maintained in complete medium with 10% FBS at 37° C./6% CO2.
The day prior to performing the assay, RBL-2H3 cells are plated in 50 μl of complete medium in a 384 well plate. Cells are grown at 37° C./6% CO2 overnight and grow to 50-60% confluence by the next day. On the assay day, 1.5 μM Fluo-4-AM dye (Invitrogen) in complete medium is added and incubated for 1 hour at RT. Cells are washed twice in Ca^2+-free HBSS buffer and 35 μl Ca^2+-free HBSS buffer is added to each well. 10 μl of a test compound prepared in a Ca^2+-free HBSS solution at 4.5× of the desired concentration is added to a well and incubated for 5 minutes at RT. 10 μl of thapsigargin prepared in a Ca^2+-free HBSS solution at 5.5× of the desired concentration (5.5 uM) is added to each well and incubated for an additional 25 minutes. The initial baseline fluorescence signal is measured with a FLIPR^384 (Molecular Devices) plate reader. 5 μl of 12× calcium in HBSS (12 mM) is added and changes in cellular fluorescence are measured with the FLIPR^384 plate reader. In each well, the change in the fluorescent signal as a function of time due to calcium entry into the cell is determined by calculating the difference between the fluorescent signal measured 7 seconds after calcium addition and the initial baseline fluorescence signal at time zero (t=0). This parameter is designated Upslope. The IC50 value is calculated as the concentration at which 50% of the Upslope is inhibited.

[3] = tested on: secreted IL-2 in Jurkat T cells; assay: In vitro assay of cytokine (IL-2) release from T cells; type: cell-based; conditions: Homo sapiens; Jurkat E6-1 cells; PHA/TPA stimulation 20 hours; IL-2 ELISA
Method: In Vitro Assay of Cytokine Release from T Cells
Jurkat E6-1 cells are obtained from ATCC and maintained in complete medium with 10% FBS at 37° C./6% CO2.
The day prior to performing the assay, Jurkat T cells are plated in 90 μL of HBSS Buffer with 1.8 mM CaCl2 and 1.75% fetal bovine serum (FBS) in a 96 well plate at a density of 1.5×10^5 cells/well for 3 hours. 10 μl of 10× test compound prepared in HBSS is added and incubated for 10 minutes at 37° C./6% CO2. Cells are stimulated by the addition of 10 μl of 11×PHA/TPA (27.5 μg/mL PHA/880 nM TPA) and incubated at 37° C./6% CO2 for 20 hours. On the following day, the supernatants are collected and assayed for IL-2 levels by ELISA according to the manufacturer's protocols. The IC50 value is calculated as the concentration at which 50% of secreted IL-2 in vehicle treated cells is inhibited.

Row | Compound | IC50 [1] | IC50 ([2]; Rattus norvegicus) | IC50 [3] | FLIPR_CRAC: 9 point CRC: O1S1_JR251: efficacy [1] | IC50 [2]
1 | (2,6-difluorophenyl-N-{5-[2-(fluorophenyl)-1-methylpyrazol-5-yl](1,3-thiazol-2-yl)]carboxamide [Example 69] | 600 to 1200 nM |  |  |  | < 600 nM
2 | Cn1nc(-c2nccs2)cc1-c1ccc(C(=O)Nc2c(F)cccc2F)s1 [Example 49, (2,6-difluorophenyl)[5-(1-methyl-3-(1,3-thiazol-2-yl)pyrazol-5-yl](2-thienyl)]carboxamide] | < 600 nM | < 600 nM |  |  | 
3 | Cc1nc(-c2cc(-c3cnc(NC(=O)c4ccccc4Cl)s3)n(C)n2)no1 [Example 18, (2-chlorophenyl)-N-{5-[1-methyl-3-(5-methyl(1,2,4,-oxadiazol-3-yl))pyrazol-5-yl](1,3-thiazol-2-yl)}carboxamide] | > 1200 nM |  |  |  | 
4 | Cc1cc2c(cc1-c1ccc(NC(=O)c3c(F)cccc3F)s1)OC(F)(F)O2 [Example 80, N-[5-(2,2-difluoro-6-methylbenzo[d]1,3-dioxolen-5-yl)(2-thienyl)](2,6-difluorophenyl)carboxamide] | > 1200 nM | < 600 nM |  |  | 
5 | Cn1nc(C(F)(F)F)cc1-c1cnc(NC(=O)c2c(F)cncc2F)s1 [Example 78] | > 1200 nM | 600 to 1200 nM |  |  | 
6 | Cn1nc(C(F)(F)F)cc1-c1ccc(NC(=O)c2ccccc2F)s1 [Example 71, (2-fluorophenyl)-N-{5-[1-methyl-3-(trifluoromethyl)pyrazol-5-yl](2-thienyl)}carboxamide] | < 600 nM | < 600 nM |  |  | 
7 | Cn1nc(-c2ccccc2)cc1-c1ccc(C(=O)Nc2ncccc2F)s1 [Example 45] | 600 to 1200 nM | 600 to 1200 nM |  |  | 
8 | Cc1cc2c(cc1-c1cnc(NC(=O)c3c(F)cncc3F)s1)OC(F)(F)O2 [Example 81, (3,5-difluoro(4-pyridyl))-N-[5-(2,2-difluoro-6-methylbenzo[d]1,3-dioxolen-5-yl)(1,3-thiazol-2-yl)]carboxamide] | > 1200 nM | < 600 nM |  |  | 
9 | Cc1cc2c(cc1-c1ccc(NC(=O)c3ccccc3F)s1)OC(F)(F)O2 [Example 79, N-[5-(2,2-difluoro-6-methylbenzo[d]1,3-dioxolen-5-yl)(2-thienyl)](2-fluorophenyl)carboxamide] | > 1200 nM | 600 to 1200 nM |  |  | 
10 | Cc1nc(-c2cc(-c3ccc(C(=O)Nc4ccccc4F)s3)n(C)n2)no1 [Example 17, N-(2-fluorophenyl){5-[1-methyl-3-(5-methyl(1,2,4-oxadiazol-3-yl))pyrazol-5-yl](2-thienyl)}carboxamide] | 600 to 1200 nM | < 600 nM |  |  | 
11 | CC(C)n1nc(C(F)(F)F)cc1-c1cnc(NC(=O)c2ccccc2Cl)s1 [Example 25, (2-chlorophenyl)-N-{5-[1-(methylethyl)-3-(trifluoromethyl)pyrazol-5-yl](1,3-thiazol-2-yl)}carboxamide] | > 1200 nM | 600 to 1200 nM |  |  | 
12 | Cn1nc(C(F)(F)F)cc1-c1ccc(NC(=O)c2c(F)cncc2F)s1 [Example 77, (3,5-difluoro(4-pyridyl))-N-{5-[1-methyl-3-(trifluoromethyl)pyrazol-5-yl](2-thienyl)}carboxamide] | 600 to 1200 nM | < 600 nM |  |  | 
13 | O=C(Nc1ccccc1Cl)c1ccc(-c2cc3scnc3cc2Cl)s1 [Example 8, N-(2-chlorophenyl)[5-(5-chlorobenzothiazol-6-yl)(2-thienyl)]carboxamide] | 600 to 1200 nM | < 600 nM |  |  | 
14 | Cc1cccnc1C(=O)Nc1ncc(-c2cc(C(F)(F)F)nn2C)s1 [Example 26, (3-methyl(2-pyridyl))-N-{5-[1-methyl-3-(trifluoromethyl)pyrazol-5-yl](1,3-thiazol-2-yl)}carboxamide] |  |  |  | <50% efficacy | < 600 nM
15 | Cn1nc(-c2nccs2)cc1-c1ccc(C(=O)Nc2c(F)cncc2F)s1 [Example 50] | 600 to 1200 nM | < 600 nM |  |  | 
16 | Cn1nc(-c2cccs2)cc1-c1ccc(C(=O)Nc2c(F)cccc2F)s1 [Example 63, N-(2,6-difluorophenyl)[5-(1-methyl-3-(2-thienyl)pyrazol-5-yl](2-thienyl)]carboxamide] | > 1200 nM |  |  |  | 
17 | Cn1nc(C(F)(F)F)cc1-c1cnc(NC(=O)c2ccncc2F)s1 [Example 76] | < 600 nM | < 600 nM |  |  | 
18 | Cn1c(-c2cnc(NC(=O)c3ccccc3Cl)s2)cc2ccccc21 [Example 22, (2-chlorophenyl)-N-[5-(1-methylindol-2-yl)(1,3-thiazol-2-yl)]carboxamide] | > 1200 nM | < 600 nM |  |  | 

Now from value to compound, other results behind:

Row | IC50 [1] | IC50 ([2]; Rattus norvegicus) | IC50 [3] | FLIPR_CRAC: 9 point CRC: O1S1_JR251: efficacy [1] | Compound | IC50 [2]
19 | < 600 nM | < 600 nM | < 50 nM |  | Cn1nc(-c2ccccc2F)cc1-c1ccc(C(=O)Nc2c(F)cccc2F)s1 [Example 35, N-(2,6-difluorophenyl){5-[3-(2-fluorophenyl)-1-methylpyrazol-5-yl](2-thienyl)}carboxamide] | 
20 | 600 to 1200 nM |  |  |  | Cc1nc(-c2cc(-c3ccc(C(=O)Nc4c(F)cccc4F)s3)n(C)n2)no1 [Example 16, N-(2,6-difluorophenyl){5-[1-methyl-3-(5-methyl(1,2,4-oxadiazol-3-yl))pyrazol-5-yl](2-thienyl)}carboxamide] | 
21 | > 1200 nM |  |  |  | Cn1nc(C(F)(F)F)cc1-c1sc(C(=O)Nc2c(F)cccc2F)cc1N [Example 30, {4-Amino-5-[1-methyl-3-(trifluoromethyl)pyrazol-5-yl](2-thienyl)}-N-(2,6-difluorophenyl)carboxamide] | 
22 |  | > 1200 nM |  | <50% efficacy | Cn1nc(C(F)(F)F)cc1-c1ccc(NC(=O)c2ccncc2F)s1 [Example 75, (3-fluoro(4-pyridyl))-N-{5-[1-methyl-3-(trifluoromethyl)pyrazol-5-yl](2-thienyl)}carboxamide] | 
23 | > 1200 nM |  |  |  | Cn1nc(-c2cccs2)cc1-c1ccc(C(=O)Nc2ccccc2Cl)s1 [Example 65] | 
24 | 600 to 1200 nM |  |  |  | Cc1cc2cn(C)nc2cc1-c1ccc(C(=O)Nc2c(F)cccc2F)s1 [Example 15] | 
25 | > 1200 nM | > 1200 nM |  |  | Cn1nc(C(F)(F)F)cc1-c1ncc(NC(=O)c2ccccc2Cl)s1 [Example 29, (2-chlorophenyl)-N-{2-[1-methyl-3-(trifluoromethyl)pyrazol-5-yl](1,3-thiazol-5-yl)}carboxamide] | 
26 | 600 to 1200 nM | 600 to 1200 nM |  |  | Cn1nc(-c2nccs2)cc1-c1ccc(C(=O)Nc2ncccc2F)s1 [Example 52] | 
27 | 600 to 1200 nM | < 600 nM |  |  | Cc1cc2cn(C)nc2cc1-c1ccc(C(=O)Nc2ccccc2Cl)s1 [Example 14] | 
28 | 600 to 1200 nM | < 600 nM |  |  | Cc1cc2cnn(C)c2cc1-c1ccc(C(=O)Nc2ccccc2F)s1 [Example 12] | 
29 | 600 to 1200 nM | 600 to 1200 nM |  |  | Cn1nc(C(F)(F)F)cc1-c1cnc(NC(=O)c2ccc(Cl)cc2)s1 [Example 73] | 
